US20100267561A1, “HERBICIDAL PYRIDAZINONE DERIVATIVES” (priority 2007, published 2010)
Where two headings read alike, the source gives them in different places.

Assays:
Assay type in all cases: in vivo
[1] = system: pigweed (Amaranthus retroflexus); experiment: Test A pre-/postemergence plant response; settings: Amaranthus retroflexus, 240 h, read-out: Plant response rating, Pigweed; for pest or weed control at 125 g/ha: 125 g ai/ha; for pest or weed control at 500 g/ha: 500 g ai/ha
Summary of the method: (§1)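 Seeds in loam soil/sand blend treated preemergence by directed soil spray, with simultaneous postemergence spray on 2–10 cm plants at one- to two-leaf stage; compounds in non-phytotoxic solvent with surfactant. Injury visually rated versus untreated controls after about 10 days in greenhouse, 0 (no effect) to 100 (complete control).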

[2] = system: velvetleaf (Abutilon theophrasti); experiment: Test A pre-/postemergence plant response
Summary of the method: as §1

[3] = system: large crabgrass (Digitaria sanguinalis); experiment: Test A pre-/postemergence plant response; settings: Digitaria sanguinalis, 240 h, read-out: Plant response rating, Crabgrass, Large; for pest or weed control at 125 g/ha: 125 g ai/ha; for pest or weed control at 500 g/ha: 500 g ai/ha
Summary of the method: as §1

[4] = system: barnyardgrass (Echinochloa crus-galli); experiment: Test A pre-/postemergence plant response; settings: Echinochloa crus-galli, 240 h, read-out: Plant response rating, Barnyardgrass; for pest or weed control at 125 g/ha: 125 g ai/ha; for pest or weed control at 500 g/ha: 500 g ai/ha
Summary of the method: as §1

[5] = system: wheat (Triticum aestivum); experiment: Test A pre-/postemergence plant response; settings: Triticum aestivum, 240 h, read-out: Plant response rating, Wheat; for plant injury at 125 g/ha: 125 g ai/ha; for plant injury at 500 g/ha: 500 g ai/ha
Summary of the method: as §1

[6] = system: morningglory (Ipomoea coccinea); experiment: Test A pre-/postemergence plant response
Summary of the method: as §1

corn (Zea mays) = experiment: Test A pre-/postemergence plant response; settings: Zea mays, 240 h; for Corn plant response rating (crop injury, 0 = no effect, 100 = complete kill) at 125 g/ha: 125 g ai/ha; for Corn plant response rating (crop injury, 0 = no effect, 100 = complete kill) at 500 g/ha: 500 g ai/ha
Summary of the method: as §1

[7] = system: giant foxtail (Setaria faberi); experiment: Test A pre-/postemergence plant response; settings: Setaria faberi, 240 h, read-out: Plant response rating, Foxtail, Giant; for pest or weed control at 125 g/ha: 125 g ai/ha; for pest or weed control at 500 g/ha: 500 g ai/ha
Summary of the method: as §1

[8] = system: surinam grass (Brachiaria decumbens); experiment: Test B pre-/postemergence plant response; settings: Urochloa decumbens, read-out: Plant response rating, Surinam Grass; for pest or weed control at 16 g/ha: 16 g ai/ha; for pest or weed control at 31 g/ha: 31 g ai/ha, 100 complete control; for pest or weed control at 62 g/ha: 62 g ai/ha; for pest or weed control at 125 g/ha: 125 g ai/ha
From the text: Seeds of plant species selected from blackgrass (Alopecurus myosuroides), downy bromegrass (Bromus tectorum), green foxtail (Setaria viridis), Italian ryegrass (Lolium multiflorum), wheat (Triticum aestivum), wild oat (Avena fatua), catchweed bedstraw (Galium aparine), bermudagrass (Cynodon dactylon), surinam grass (Brachiaria decumbens), cocklebur (Xanthium strumarium), corn (Zea mays), large crabgrass (Digitaria sanguinalis), woolly cupgrass (Eriochloa villosa), giant foxtail (Setaria faberii), goosegrass (Eleusine indica), johnsongrass (Sorghum halepense), kochia (Kochia scoparia), lambsquarters (Chenopodium album), morningglory (Ipomoea coccinea), eastern black (E.B.) nightshade (Solanum ptycanthum), yellow nutsedge (Cyperus esculentus), pigweed (Amaranthus retroflexus), common ragweed (Ambrosia elation), Russian thistle (Salsola iberica), soybean (Glycine max), common (oilseed) sunflower (Helianthus annuus), and velvetleaf (Abutilon theophrasti) were planted and treated preemergence with test chemicals formulated in a non-phytotoxic solvent mixture which included a surfactant.
At the same time, plants selected from these crop and weed species and also winter barley (Hordeum vulgare), canarygrass (Phalaris minor), chickweed (Stellaria media) and windgrass (Apera spica-venti) were treated with postemergence applications of some of the test chemicals formulated in the same manner. Plants ranged in height from 2 to 18 cm (1- to 4-leaf stage) for postemergence treatments.
Plant species in the flooded paddy test consisted of rice (Oryza sativa), umbrella sedge (Cyperus difformis), ducksalad (Heteranthera limosa) and barnyardgrass (Echinochloa crus-galli) grown to the 2-leaf stage for testing. At time of treatment, test pots were flooded to 3 cm above the soil surface, treated by application of test compounds directly to the paddy water, and then maintained at that water depth for the duration of the test. Treated plants and controls were maintained in a greenhouse for 13 to 15 days, after which time all species were compared to controls and visually evaluated. Plant response ratings, summarized in Table B, are based on a scale of 0 to 100 where 0 is no effect and 100 is complete control. A dash (-) response means no test result.

[9] = system: canarygrass (Phalaris minor); experiment: Test B postemergence plant response; settings: Postemergence
Summary of the method: (§2)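 Postemergence greenhouse test; plants at 2 to 18 cm (1- to 4-leaf stage) given formulated test chemical, held 13 to 15 days, then visually rated against untreated controls on a 0 (no effect) to 100 (complete control) scale; dash means no result.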

[10] = system: winter barley (Hordeum vulgare); experiment: Test B postemergence plant response; settings: Postemergence
Summary of the method: as §2

[11] = system: chickweed (Stellaria media); experiment: Test B postemergence plant response; settings: Postemergence
Summary of the method: as §2

[12] = system: windgrass (Apera spica-venti); experiment: Test B postemergence plant response; settings: Postemergence
Summary of the method: as §2

[13] = post-emergence, Postemergence, 0 to 100 scale, 0 no effect, 100 complete control
[14] = pre-emergence, Preemergence, 0 to 100 scale (0 no effect, 100 complete control)
[15] = Postemergence, 125 g ai/ha, 0 to 100 scale, 0 no effect, 100 complete control
[16] = Postemergence, 500 g ai/ha, 0 to 100 scale, 0 no effect, 100 complete control
[17] = Preemergence, 125 g ai/ha, 0 to 100 scale (0 no effect, 100 complete control)
[18] = Preemergence, 500 g ai/ha, 0 to 100 scale (0 no effect, 100 complete control)
[19] = post-emergence, Postemergence, scale 0 to 100
[20] = pre-emergence, Preemergence, scale 0 to 100
[21] = 31 g ai/ha, scale 0 to 100, 0 no effect, 100 complete control

Work on CCc1cc(-c2ccc(C(F)(F)F)cc2)nn1-c1c(O)cnn(C)c1=O [Compound 11, 4-[5-ethyl-3-[4-(trifluoromethyl)phenyl]-1H-pyrazol-1-yl]-5-hydroxy-2-methyl-3(2H)-pyridazinone] yielded a pest or weed control at 125 g/ha [1, 13] of 0%, a pest or weed control at 500 g/ha [1, 13] of 0% and a pest or weed control at 125 g/ha [1, 14] of 0%. The pest or weed control at 500 g/ha [1, 14] was 30%, the “Plant response rating, Velvetleaf” value [2, 15] was 0 and the “Plant response rating, Velvetleaf” value [2, 16] was 0. For the same compound, the “Plant response rating, Velvetleaf” value [2, 17] was 0, the “Plant response rating, Velvetleaf” value [2, 18] was 0 and the pest or weed control at 125 g/ha [3, 13] was 90%. It also gave a pest or weed control at 500 g/ha [3, 13] of 100%, a pest or weed control at 125 g/ha [3, 14] of 100% and a pest or weed control at 500 g/ha [3, 14] of 100%. The pest or weed control at 125 g/ha [4, 13] was 100%, the pest or weed control at 500 g/ha [4, 13] was 100% and the pest or weed control at 125 g/ha [4, 14] was 100%. For the same compound, the pest or weed control at 500 g/ha [4, 14] was 100%, the plant injury at 125 g/ha [5, 13] was 80% and the plant injury at 500 g/ha [5, 13] was 100%. For the same compound, the plant injury at 125 g/ha [5, 14] was 100%, the plant injury at 500 g/ha [5, 14] was 100% and the “Plant response rating, Morningglory” value [6, 15] was 0. For the same compound, the “Plant response rating, Morningglory” value [6, 16] was 0, the “Plant response rating, Morningglory” value [6, 17] was 0 and the “Plant response rating, Morningglory” value [6, 18] was 30. For the same compound, the Corn plant response rating (crop injury, 0 = no effect, 100 = complete kill) at 125 g/ha (corn (Zea mays); [13]) was 90%, the Corn plant response rating (crop injury, 0 = no effect, 100 = complete kill) at 500 g/ha (corn (Zea mays); [13]) was 90% and the Corn plant response rating (crop injury, 0 = no effect, 100 = complete kill) at 125 g/ha (corn (Zea mays); [14]) was 90%. For the same compound, the Corn plant response rating (crop injury, 0 = no effect, 100 = complete kill) at 500 g/ha (corn (Zea mays); [14]) was 100%, the pest or weed control at 125 g/ha [7, 13] was 90% and the pest or weed control at 500 g/ha [7, 13] was 100%. For the same compound, the pest or weed control at 125 g/ha [7, 14] was 100%, the pest or weed control at 500 g/ha [7, 14] was 100% and the pest or weed control at 16 g/ha [8, 19] was 100%. The pest or weed control at 31 g/ha ([8]; post-emergence, Postemergence, scale 0 to 100, 0 no effect) was 100%, the pest or weed control at 62 g/ha [8, 19] was 100% and the pest or weed control at 125 g/ha [8, 19] was 100%. For the same compound, the pest or weed control at 16 g/ha ([8]; pre-emergence, Preemergence, scale 0 to 100 (0 no effect, 100 complete control)) was 100%, the pest or weed control at 31 g/ha ([8]; pre-emergence, Preemergence, 0 to 100 scale, 0 no effect) was 100% and the pest or weed control at 62 g/ha [8, 20] was 100%. For the same compound, the pest or weed control at 125 g/ha [8, 20] was 100%, the “Plant response rating, Canarygrass” value ([9]; 16 g ai/ha, scale 0 to 100) was 80 and the “Plant response rating, Canarygrass” value [9, 21] was 100. The “Plant response rating, Canarygrass” value ([9]; 62 g ai/ha, scale 0 to 100) was 100, the “Plant response rating, Canarygrass” value ([9]; 125 g ai/ha, scale 0 to 100) was 100 and the “Plant response rating, Barley” value ([10]; 16 g ai/ha, scale 0 to 100, 0 no effect, 100 complete control) was 90. For the same compound, the “Plant response rating, Barley” value [10, 21] was 95, the “Plant response rating, Barley” value ([10]; 62 g ai/ha, scale 0 to 100) was 100 and the “Plant response rating, Barley” value ([10]; 125 g ai/ha, scale 0 to 100) was 100. For the same compound, the “Plant response rating, Chickweed” value ([11]; 16 g ai/ha, scale 0 to 100) was 0, the “Plant response rating, Chickweed” value [11, 21] was 0 and the “Plant response rating, Chickweed” value ([11]; 62 g ai/ha, scale 0 to 100) was 0. For the same compound, the “Plant response rating, Chickweed” value ([11]; 125 g ai/ha, scale 0 to 100) was 0, the “Plant response rating, Windgrass” value ([12]; 16 g ai/ha, scale 0 to 100) was 100 and the “Plant response rating, Windgrass” value [12, 21] was 100. The “Plant response rating, Windgrass” value ([12]; 62 g ai/ha, scale 0 to 100) was 100 and the “Plant response rating, Windgrass” value ([12]; 125 g ai/ha, scale 0 to 100) was 100.
